Assay results as given in patent US20110117554A1, “Formamide-containing mixtures for detecting nucleic acids” (priority 2009, published 2011).

Test: Melting temperatures of 20mer nucleic acid duplexes in formamide-water mixtures
Assay type: physicochemical
Details: for Melting Temperatures in Formamide: 1.5 μM single strand, 100 mM NaCl, 10 mM K-phosphate pH 7, 0.1 mM EDTA
Protocol: A mismatch in 50% formamide in the DNA strand lowers the melting temperature of the duplex containing LNA-8 from 72 to 66 to 62° C.
As the results in the Tables show, useful melting temperatures are obtained when the oligonucleotides bound in duplex contain at least 15 nucleotide units that have 2′-OMe ribonucleotides as their building blocks. Comparably useful melting temperatures are obtained when the oligonucleotides contain locked nucleic acid (LNA) carbohydrate analogs, as described in [Koshkin et al., 1998]. The data in the Tables also makes clear that the binding between two complementary DNA strands of this length is not useful in 50% formamide, as it is below 30° C. at 50% formamide.

| Substance | Tm (Stability of Duplexes in Formamide and Water) (0 % formamide (Table 3)) [°C] | Melting Temperatures in Formamide (0 percent formamide) [°C] | Tm (Stability of Duplexes in Formamide and Water) (25 % formamide (Table 3)) [°C] | Melting Temperatures in Formamide (25 percent formamide) [°C] | Tm (Stability of Duplexes in Formamide and Water) (50 % formamide (Table 3)) [°C] | Melting Temperatures in Formamide (50 percent formamide) [°C] | Tm (Stability of Duplexes in Formamide and Water) (70 % formamide (Table 3)) [°C] | Tm (Stability of Duplexes in Formamide and Water) (70 % formamide (Table 3), listed as model 20 mer) [°C] | Tm (Stability of Duplexes in Formamide and Water) (90 % formamide (Table 3)) [°C] |
| --- | --- | --- | --- | --- | --- | --- | --- | --- | --- |
| DNA:DNA: 20mer DNA duplex of strand-1 5′-CTTCAGGTACTGAGTCAAGC-3′ (SEQ ID NO 3) and strand-2 (SEQ ID NO 4) (chain 1 CTTCAGGTACTGAGTCAAGC; chain 2 GCTTGACTCAGTACCTGAAG; DNA, backbone and methylation of C not given here) | 61 | 62 | 44 | 46 | 28 | 29 | <20 | ≤ 20 | – |
| RNA:RNA: 20mer RNA duplex 5′-CUUCAGGUACUGAGUCAAGC-3′ (SEQ ID NO 1) with 3′-GAAGUCCAUGACUCAGUUCG-5′ (SEQ ID NO 2) (chain 2 GCUUGACUCAGUACCUGAAG; RNA, backbone not given here) | 73 | 73 | 60 | 61 | 48 | 49 | 40 | – | <25 |
